For 1 compound, IC50 results are on record in BindingDB's records for doi:10.1021/acs.jmedchem.8b00170 (The University of Queensland, 2018).

As a reminder, the IC50 is the concentration at which inhibition is half-maximal. A high value points to weaker potency in that assay.

For the test, the target named is Melanocortin receptor 5 (Homo sapiens, UniProt P33032). The test is described as follows: Displacement of [125I]-NDP-alpha-MSH from human MC5R LBD expressed in HEK293 cell membranes incubated for 16 to 23 hrs in dark by scintillation proximity assay. (Displacement assays read how much labelled ligand stays bound in the presence of the test substance.)
Melanocortin receptor 5, sequence (P33032 whole entry, the tested form may be a part): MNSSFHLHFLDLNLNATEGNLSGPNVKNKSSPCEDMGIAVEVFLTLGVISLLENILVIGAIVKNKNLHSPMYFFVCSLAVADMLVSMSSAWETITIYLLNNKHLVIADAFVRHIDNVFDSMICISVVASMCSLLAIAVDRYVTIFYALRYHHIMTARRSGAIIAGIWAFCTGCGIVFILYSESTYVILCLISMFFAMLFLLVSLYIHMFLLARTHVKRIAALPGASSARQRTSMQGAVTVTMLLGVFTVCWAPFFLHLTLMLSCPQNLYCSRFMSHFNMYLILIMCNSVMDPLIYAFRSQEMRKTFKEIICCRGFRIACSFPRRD

The structures appear in SMILES notation.

Regarding `CC[C@H](C)[C@@H]1NC(=O)[C@@H]2CCCN2C(=O)[C@@H]2CCCN2C(=O)[C@H]([C@@H](C)CC)NC(=O)[C@H](CO)NC(=O)[C@H](C)NC(=O)[C@H]([C@@H](C)O)NC(=O)[C@@H]2CSSC[C@H](NC1=O)C(=O)N[C@@H](Cc1c[nH]cn1)C(=O)N[C@H](Cc1ccccc1)C(=O)N(C)[C@@H](CCCNC(=N)N)C(=O)N(C)[C@@H](Cc1c[nH]c3ccccc13)C(=O)N[C@@H](CCCNC(=N)N)C(=O)N2`, the IC50 came to 813 nM.
